Assay [1] relates to U138 human glioblastoma cells. The assay is described as follows: MTT cytotoxicity assay, U138. It is filed as cell-based. The following applies: 48 h incubation, 3 independent experiments, read-out: IC50 (mean ± SE). Here is the method:
(§1) Human brain tumor cells lines U87 MG (Cat.# HTB-14), U118 MG (Cat. # HTB-15), U138 (Cat # HTB-16), U373 MG (CAT. # HTB-17), and T98G (Cat. # CRL-1690) and breast cancer cell lines BT-20 (Cat # HTB-19), MDA-MB-231 (Cat # HTB-26), MDA-MB-361 (Cat # HTB-27), and MCF-7 (Cat # HTB-22) were obtained from American Type Culture Collection (ATCC, Rockville, Md.) and maintained as continuous cell lines in Dulbecco's modified Eagles's medium (U87, U118, U138, U373, T98 and BT-20) or Leibovitz's L-15 medium (MDA-MB-231 and MDA-MB-361). All media were supplemented with 10% fetal calf serum (FCS), 4 mM glutamine, 100 U/ml penicillin G and […] streptomycin sulfate. All tissue culture reagents were obtained from Life Technologies Inc. (GIBCO-BRL, Gaithersburg, Md.).
(§2) The cytotoxicity of [VO(SO4)(Me2-Phen)2] against human cancer cell lines was analyzed using the MTT (3-[4,5-dimethylthiazol-2-yl]-2,5-diphenyl tetrazolium bromide) assay (Boehringer Mannheim Corp., Indianapolis, Ind.) as described previously (Narla et al., Clin Cancer Res., 4: 1405-1414, 1998). […] The absorbance at 540 nm (a reference wavelength of 690 nm was used) of the solution in each well was measured using a microplate reader (Labsystems). The percent survival and the IC50 values were calculated using Graphpad Prism v2.0 (Graphpad Software, Inc., San Diego, Calif.) as described previously (Narla et al., Supra). […]
For orientation: Tetrazolium assays rely on reduction of a dye to a coloured formazan, in cell work by metabolically active cells.

Assay [2] deals with U373 human glioblastoma cells. The assay is described as follows: MTT cytotoxicity assay, U373. Conditions: 48 h incubation, 3 independent experiments, read-out: IC50 (mean ± SE). It is filed as cell-based. Here is the method: as §1, §2
In assay [3] the test system is BT-20 breast cancer cells. Kind of assay: MTT cytotoxicity assay, BT-20. It is filed as cell-based, human. The following applies: BT-20 cells, 48 h incubation, 3 independent experiments, read-out: IC50 (mean ± SE). The protocol: as §1, §2
In assay [4] the test system is MDA-MB-231 breast cancer cells. Kind of assay: MTT cytotoxicity assay, MDA-MB-231. Format: cell-based, human. The following applies: MDA-MB-231 cells, 48 h incubation, 3 independent experiments, read-out: IC50 (mean ± SE). Here is the method: as §1, §2
Assay [5] deals with MDA-MB-231 breast cancer cells. The assay is described as follows: In situ detection of apoptosis (TdT-mediated dUTP nick-end labeling), MDA-MB-231. Format: cell-based, human. Conditions: MDA-MB-231 cells, dUTP-FITC labeling; read-out: apoptotic EC50. Here is the method: Apoptosis was detected using an in situ cell death detection kit (Boehringer Mannheim Corp., Indianapolis, Ind.) as described previously (Albini et al., J. Cell Biol., 105: 1867-1872, 1987; Huang et al., J Biol Chem., 272: 2927-2935, 1997). Cells were incubated with [VO(SO4)(Me2-Phen)2] for 48 hours at 37° C., fixed, permeabilized, incubated with the reaction mixture containing terminal deoxynucleotidyl transferase (TdT) and fluorescein isothiocyanate (FITC)-conjugated dUTP and counterstained with propidium iodide. Cells were transferred to slides and viewed with confocal laser scanning microscope (Bio-Rad MRC 1024) mounted on a Nikon Eclipse E800 series upright microscope as previously reported (Narla et al., Supra).
Administration of [VO(SO4)(Me2-Phen)2] to cells induced apoptotic or programmed cell death as determined using the TdT-mediated dUTP nick-end labeling of exposed 3′-OH termini of DNA with dUTP-FITC.

The subject of assay [6] is U87 human glioblastoma xenografts. The assay is described as follows: SCID mouse xenograft model of human glioblastoma. It is filed as in vivo, SCID mice. Here is the method: FIGS. 1A-1B illustrate the in vivo antitumor activity of the vanadium compound, [VO(SO4)(Me2-Phen)2] against human glioblastoma and breast cancer in SCID mice. The effects of daily treatment with [VO(SO4)(Me2-Phen)2] (10 mg/kg/day) or 5% DMSO in PBS (given five days per week for four weeks beginning the day after inoculation) on tumor growth and progression of glioblastoma (FIG. 1A) and breast cancer (FIG. 1B) are illustrated. Comparisons between groups were done using the log-rank test.
The animal protocols used in this study were approved by the Parker Hughes Institute Institutional Animal Care and Use Committee (IACUC). […]
The right and left hind legs of the SCID mice were inoculated subcutaneously with 1×10^6 U87 human glioblastoma and 1×10^6 MDA-MB-231 beast cancer cells, respectively, in 0.1 mL PBS. […] Mice were monitored daily for health status as well as tumor growth and were sacrificed if they became moribund, developed tumors which impeded their ability to attain food or water, or at the ed of the six-week observation period. Tumors were measured using Vernier calipers three times per week. Tumor volumes were calculated according to the following formula, as described previously (Narla et al., Clin Cancer Res., 4: 1405-14, 1998; Friedman et al., Cancer Res., 55: 2853-2857, 1995): Tumor volume=(Width)^2(Length)/2. […]
A general note: A xenograft is tissue or cells of one species grown in another, often human tumour cells in immunodeficient mice.

Take `Cc1ccnc2c1ccc1c(C)ccnc12.Cc1ccnc2c1ccc1c(C)ccnc12.O=S(=O)([O-])[O-].[O]=[V+2]` [[VO(SO4)(Me2-Phen)2], bis(4,7-dimethyl-1,10-phenanthroline) sulfatooxovanadium (IV)]: the IC50 in assay [1] worked out at 2700 ± 400 nM; in assay [2], 2000 ± 400 nM; in assay [3], 1600 ± 700 nM; in assay [4] it was 500 ± 100 nM. Further, the EC50 in assay [5] amounted to 2100 ± 400 nM. Besides, the “average size of tumor xenografts” value in assay [6] (U87, 1.5 months after inoculation, 10 mg/kg i.p., vehicle control 6928±653, P=0.007) turned out to be 3199±646 mm^3. Further, in assay [6] (U87 xenografts, 10 mg/kg/dose i.p., five days per week for four weeks), the “mice remaining alive and free of detectable tumors for >16 days” value was found to be 40%.

A word on the IC50: it is the concentration that gives 50% inhibition. As usually defined, the EC50 is the midpoint of the concentration-response curve.
